According to BindingDB's records for doi:10.7270/Q2TX3CTT (Broad Institute, 2010):
Where a name gives a salt, the structure may show the parent alone.

Target: Glycogen synthase kinase-3 beta (Homo sapiens, UniProt P49841)
Experiment: concentration-response blocking of human GSK3B – biochemical, luminescence, cell-free homogeneous, retest, dose response (AID 434954)

Glycogen synthase kinase-3 beta, sequence (P49841 whole entry): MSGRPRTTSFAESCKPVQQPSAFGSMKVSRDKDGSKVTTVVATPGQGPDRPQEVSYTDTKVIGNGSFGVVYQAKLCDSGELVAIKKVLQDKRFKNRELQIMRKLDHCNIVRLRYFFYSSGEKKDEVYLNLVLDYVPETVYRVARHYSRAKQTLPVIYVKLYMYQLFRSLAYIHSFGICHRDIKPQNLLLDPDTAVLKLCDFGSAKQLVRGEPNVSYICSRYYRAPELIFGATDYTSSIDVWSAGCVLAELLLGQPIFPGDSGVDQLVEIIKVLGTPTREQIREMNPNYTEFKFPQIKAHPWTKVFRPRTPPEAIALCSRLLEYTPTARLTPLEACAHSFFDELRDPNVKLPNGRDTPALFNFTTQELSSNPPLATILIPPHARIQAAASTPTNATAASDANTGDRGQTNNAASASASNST

| SMILES | EC50 [µM] |
| --- | --- |
| COc1ccc(N2CCN(CC(O)COc3c(OC)cccc3OC)CC2)cc1 (centres undefined) [1-(2,6-dimethoxyphenoxy)-3-[4-(4-methoxyphenyl)piperazin-1-yl]propan-2-ol;hydrochloride] | > 300 |
| COc1ccc(Nc2nc(N)c([N+](=O)[O-])c(NCc3ccccc3)n2)cc1 [MLS000332775] | 10.1 |
| O=[N+]([O-])c1ccccc1S(=O)(=O)Nc1ccc(S(=O)(=O)Nc2nccs2)cc1 | > 300 |
| COc1ccc(CCNC(=O)CN2CCOc3ccccc32)cc1OC [2-(2,3-dihydro-1,4-benzoxazin-4-yl)-N-[2-(3,4-dimethoxyphenyl)ethyl]acetamide] | > 300 |
| CC(=O)c1ccc(NC(=O)NNS(=O)(=O)c2ccc([N+](=O)[O-])cc2)cc1 | > 300 |
| Brc1ccc(CSc2nnc(-c3cccnc3)o2)cc1 [SMR000292494] | > 300 |
| O=C(Cc1ccc([N+](=O)[O-])cc1)Nc1ccc2c(c1)C(=O)NC2=O [SMR000291894] | > 300 |
| CCN(CC)Cc1c(O)ccc2c1O/C(=C\C=C\c1ccccc1)C2=O [MLS000779120] | > 300 |
| Cc1cccc(/C=C2/Sc3ccc(C(=O)NCCCN4CCOCC4)cc3NC2=O)c1 [(2E)-2-[(3-methylphenyl)methylidene]-N-(3-morpholin-4-ylpropyl)-3-oxidanylidene-4H-1,4-benzothiazine-6-carboxamide] | > 300 |
| Nc1nc(NCCCN2CCOCC2)nc(Nc2ccccc2F)c1[N+](=O)[O-] [MLS000769816] | 1.27 |
| Cc1ccc(C(C(=O)NC2CCCCC2)N(CC2CCCO2)C(=O)CNC(=O)c2cccs2)cc1 (centres undefined) [N-[2-[[2-(cyclohexylamino)-1-(4-methylphenyl)-2-oxoethyl]-(oxolan-2-ylmethyl)amino]-2-oxoethyl]thiophene-2-carboxamide] | > 300 |
| COc1ccc(OC)c(Nc2nc(N)c([N+](=O)[O-])c(NC3CCCCC3)n2)c1 [N4-cyclohexyl-N2-(2,5-dimethoxyphenyl)-5-nitropyrimidine-2,4,6-triamine] | > 300 |
| CCCCc1cc(=O)oc2cc(C)cc(OC(C)C(=O)O)c12 (centres undefined) [SMR000043773] | > 300 |
| Cc1ccnc(NC(=O)Cn2cc([N+](=O)[O-])cn2)c1 [SMR000307337] | > 300 |
| COc1ccc2c(c1)C(=O)C(=O)N2 [5-methoxy-2,3-dihydro-1H-indole-2,3-dione] | > 300 |
| CN=C(C)C(C(=O)OC)C(=O)c1ccc(Cl)cc1Cl (centres undefined) [SMR000461254] | > 300 |
| Cc1cccc(C(=O)NC2CC3CCCC(C2)N3Cc2ccccc2)c1 (centres undefined) [MLS001212730] | > 300 |
| N#CC(=Cc1c[nH]nc1-c1ccc(Br)cc1)C(=O)O [(Z)-3-[5-(4-bromophenyl)-1H-pyrazol-4-yl]-2-cyanoprop-2-enoic acid] | > 300 |
| O=C(CCl)Oc1ccc2occ(C(=O)c3cccs3)c2c1 [SMR000121351] | 4.54 |
| COc1ccc(-n2sc3c(c2=S)-c2cc(OC)ccc2NC3(C)C)cc1 | > 300 |
| C=CCN(c1ccc(C(=O)Nc2ccc(C)c(C)c2)cc1)S(C)(=O)=O [N-(3,4-dimethylphenyl)-4-[methylsulfonyl(prop-2-enyl)amino]benzamide] | > 300 |
| O=C(c1ccc(Br)cc1)c1coc2ccc(O)cc12 [MLS001178337] | 15.4 |

| SMILES | EC50 [µM] |
| --- | --- |
| O=C(CCSCCc1ccccn1)Nc1cc(F)ccc1F [N-(2,5-difluorophenyl)-3-(2-pyridin-2-ylethylsulfanyl)propanamide] | > 300 |
| CC(C)Nc1nc(-c2ccncc2)nc(-c2ccccc2)c1C#N [SMR000549424] | > 300 |
| CCOC(=O)c1ccc(NC(=O)Nc2ccccn2)cc1 [MLS000679333] | > 300 |
| O=c1cc(-c2ccccc2Cl)oc2c([N+](=O)[O-])c(O)cc(O)c12 [MLS000518336] | 2.58 |
| CCN(Cc1ccccc1)S(=O)(=O)c1ccc2c(c1)NC(=O)CC(=O)N2 [N-ethyl-2,4-dioxo-N-(phenylmethyl)-1,5-dihydro-1,5-benzodiazepine-7-sulfonamide] | 59.6 |
| Cc1ccc(C)c(N2CCN(C(=O)Cn3ncc4c([nH]c5ccc(C)cc54)c3=O)CC2)c1 [3-[2-[4-(2,5-dimethylphenyl)piperazin-1-yl]-2-oxidanylidene-ethyl]-8-methyl-2H-pyridazino[4,5-b]indol-4-one] | > 300 |
| CCC(OCC(O)CN1CCCCC1)c1ccccc1 (centres undefined) | > 300 |
| COc1ccc(OC)c(Nc2nc(N(C)c3ccccc3)nc(N)c2[N+](=O)[O-])c1 [MLS001215240] | > 300 |
| CCn1c(SCc2ccccc2)nnc1-c1cccs1 | > 300 |
| NC(=NNC(=O)c1ccc(Cl)cc1)c1cnccn1 [N-[(Z)-[azanyl(pyrazin-2-yl)methylidene]amino]-4-chloranyl-benzamide] | > 300 |
| CCOC(=O)c1cnc2ccc(F)cc2c1Nc1ccc2c(c1)OCCO2 [SMR000198647] | > 300 |
| CCNc1ccc(S(=O)(=O)N(C)C)cc1NCC(=O)Nc1ccc(Br)cc1F [N-(4-bromanyl-2-fluoranyl-phenyl)-2-[[5-(dimethylsulfamoyl)-2-(ethylamino)phenyl]amino]ethanamide] | > 300 |
| COc1cc(NC(=S)Nc2ccccn2)c(OC)cc1Cl [1-(4-chloranyl-2,5-dimethoxy-phenyl)-3-pyridin-2-yl-thiourea] | 12.3 |
| CCn1nc(NC(=O)c2cccs2)c2cc3ccccc3nc21 [MLS000674383] | > 300 |
| CCn1nc(NC(=O)C2CCCO2)c2cc3cccc(C)c3nc21 (centres undefined) [Tetrahydro-furan-2-carboxylic acid (1-ethyl-8-methyl-1H-pyrazolo[3,4-b]quinolin-3-yl)-amide] | > 300 |
| CCCN(CCC)Cc1c(C(=O)NN=C/C(C)=C\c2ccccc2)nnn1-c1nonc1N [1-(4-azanyl-1,2,5-oxadiazol-3-yl)-5-[(dipropylamino)methyl]-N-[[(Z)-2-methyl-3-phenyl-prop-2-enylidene]amino]-1,2,3-triazole-4-carboxamide] | > 300 |
| CC(=O)Nc1cc(-c2ccc(Cl)cc2)n[nH]1 [N-[5-(4-chlorophenyl)-1H-pyrazol-3-yl]acetamide] | 23.8 |
| O=c1cccc2oc(-c3ccccc3Cl)cc(O)c1-2 [2-(2-chlorophenyl)-5-hydroxy-1-benzopyran-4-one] | > 300 |
| O=C1OCCC1Sc1nnc(-c2ccc(O)cc2)o1 (centres undefined) [3-[[2-(4-oxo-1-cyclohexa-2,5-dienylidene)-3H-1,3,4-oxadiazol-5-yl]thio]-2-oxolanone] | 14.3 |
| COc1c(CC=C(C)C)cc([C@@H]2CC(=O)c3c(O)cc(O)cc3O2)cc1CC=C(C)C [abyssinone-V-4'-O-methyl ether] | > 300 |
| COc1ccc(C2CC(=O)C3C(=Nc4ncnn4C3c3ccccc3C)C2)cc1 (centres undefined) | > 300 |
| Nc1nc(NCC2CCCO2)nc(Nc2ccc(F)cc2)c1[N+](=O)[O-] (centres undefined) [SMR000219528] | 5.82 |

| SMILES | EC50 [µM] |
| --- | --- |
| Cn1c(SCC(=O)Nc2ccc(Cl)cn2)nnc1C1CC1 [N-(5-chloro-2-pyridinyl)-2-[(5-cyclopropyl-4-methyl-1,2,4-triazol-3-yl)thio]acetamide] | 23.7 |
| CCc1ccc(C(=O)c2cnc3ccc(OC)cc3c2N2CCN(CC)CC2)cc1 [(4-ethylphenyl)-[4-(4-ethylpiperazin-1-yl)-6-methoxy-quinolin-3-yl]methanone] | 20.7 |
| CCOC(=O)c1nnn(-c2nonc2N)c1COc1ccccc1 [ethyl 1-(4-amino-1,2,5-oxadiazol-3-yl)-5-(phenoxymethyl)triazole-4-carboxylate] | 23.8 |
| CCC(=O)Nc1sc2c(c1C(N)=O)CCN(C(C)=O)C2 [6-acetyl-2-(1-oxopropylamino)-5,7-dihydro-4H-thieno[2,3-c]pyridine-3-carboxamide] | 13.8 |
| CCOC(=O)/C(C#N)=C/c1cn(CCC(=O)O)nc1-c1ccccc1 [3-[4-[(E)-2-cyano-3-ethoxy-3-oxoprop-1-enyl]-3-phenyl-1-pyrazolyl]propanoic acid] | > 300 |
| COc1ccc(OC)c(Nc2nc(NCCCN(C)C)nc(N)c2[N+](=O)[O-])c1 [3-[[4-amino-6-(2,5-dimethoxyanilino)-5-nitro-pyrimidin-2-yl]amino]propyl-dimethyl-amine] | 2.74 |
| COC1=CC(=O)CC(C)C12Oc1cc(OC)cc(OC)c1C2=O (centres undefined) [3',4,6-trimethoxy-5'-methyl-spiro[1-benzofuran-2,4'-cyclohex-2-ene]-1',3-dione] | > 300 |
| Cc1nc2sc(C(c3cccc(F)c3)N3CC(C)OC(C)C3)c(O)n2n1 (centres undefined) | > 300 |
| COc1cc(CN=O)ccc1OCc1ccccc1Cl [4-(2-chlorobenzyl)oxy-3-methoxy-benzaldoxime] | > 300 |
| CCCc1c(C(=O)NN=Cc2ccncc2)nnn1-c1nonc1N | > 300 |
| Clc1ccc2[nH]c3c(c2c1)CCc1c[nH]nc1-3 [MLS000108710] | 25.3 |
| Clc1ccccc1CSc1nnc(-c2ccncc2)o1 [2-{[(2-chlorophenyl)methyl]sulfanyl}-5-(pyridin-4-yl)-1,3,4-oxadiazole] | 4.85 |
| CCOc1ccc2nc(N3CCC(C(=O)N4CCN(C5CCCCC5)CC4)CC3)sc2c1 [(4-cyclohexyl-1-piperazinyl)-[1-(6-ethoxy-1,3-benzothiazol-2-yl)-4-piperidinyl]methanone] | > 300 |
| CCn1c(SCC(=O)Nc2ccc(NC(C)=O)cc2)nnc1C1CC1 [N-(4-acetamidophenyl)-2-[(5-cyclopropyl-4-ethyl-1,2,4-triazol-3-yl)sulfanyl]ethanamide] | > 300 |
| CC(C)CNC(=O)c1cccc(NC(=O)c2ccc(NC(=O)c3ccco3)cc2)c1 [MLS000088940] | > 300 |
| Cc1c(O)ccc2c(-c3ccccc3)cc(=O)oc12 [7-hydroxy-8-methyl-4-phenyl-1-benzopyran-2-one] | > 300 |
| COC(=O)C(C(=O)OC)c1ccc(NC(=O)c2cccc(Cl)c2)cc1 [dimethyl 2-{4-[(3-chlorobenzoyl)amino]phenyl}malonate] | > 300 |
| COc1cc(-c2n[nH]c3c2C(c2ccco2)C(C#N)C(=N)O3)cc(OC)c1OC (centres undefined) [MLS000698887] | 8.59 |
| COc1ccc(COC(=O)c2cccc(S(=O)(=O)N3CCN(C(C)=O)CC3)c2)cc1 [(4-methoxyphenyl)methyl 3-(4-acetylpiperazin-1-yl)sulfonylbenzoate] | > 300 |
| Cc1coc2cc3oc(=O)c(CCC(=O)NCCCN4CCCC4=O)c(C)c3cc12 [3-(3,5-dimethyl-7-oxo-6-furo[3,2-g][1]benzopyranyl)-N-[3-(2-oxo-1-pyrrolidinyl)propyl]propanamide] | > 300 |
